“And” between values parts separate entries of the source, which are not always exact repeats. Equal values may be shown once. After the bases stand the sugars from the 5' end (letter, count) and the backbone: PS all phosphorothioate, else s phosphorothioate and o phosphodiester by linkage. Methylation of C is not given here. e = 2'-O-(2-methoxyethyl) (MOE); d = 2'-deoxy (DNA)

The target of this data set is DGAT2. The note with it: ASO.

In turn, “AGAGCCAGCACACAGCTATG (sugars e5 d10 e5, PS)” came in with a target mRNA inhibition (HepG2, 0.12 µM) of 20%. As to “TTCCACTCTTCTGACAGGTC (sugars e5 d10 e5, PS)”, the target mRNA inhibition (HepG2, 10 µM) was 89% and 84%. For “CCTCTGCTTCTTGGGCATCT (sugars e5 d10 e5, PS)”, the target mRNA inhibition was 92% and 91% (HepG2, 2.5 µM); 91% and 89% (HepG2, 10 µM). Consider “AACCACAGCGATAATCACAC (sugars e5 d10 e5, PS)”, for which the target mRNA inhibition is 66% (HepG2, 2.5 µM) and 91% (HepG2, 10 µM).

In turn, “TAGCTCATGGTGGCGGCATC (sugars e5 d10 e5, PS)” showed a target mRNA inhibition (HepG2, 0.12 µM) of 35%. For the sequence “AGCAGGTTGTGTGTCTTCAC (sugars e5 d10 e5, PS)”, the target mRNA inhibition reads like this: (HepG2, 0.12 µM) 55% and 77%; (HepG2, 2.5 µM) 0%.

For “CAATGCCAATGCCTAGGTCA (sugars e5 d10 e5, PS)”, the target mRNA inhibition is, setting by setting: (HepG2, 2.5 µM) 70%; (HepG2, 10 µM) 90%.

Consider “TGGGAACAGCAGCATCAGCA (sugars e5 d10 e5, PS)”, for which the target mRNA inhibition was determined as 65% (HepG2, 2.5 µM) and 80% (HepG2, 10 µM). The like results for “TCTGCGCGATTCACTGAGGA (sugars e5 d10 e5, PS)” were, in that order, 64% and 84%. The like results for “AATGGGAATGGTATCGCACT (sugars e5 d10 e5, PS)” were, in that order, 58% and 89%.

In the case of “CCAGTTTCGGACCCACTGTG (sugars e5 d10 e5, PS)”, the target mRNA inhibition runs as follows: (HepG2, 0.12 µM) 83%; (HepG2, 2.5 µM) 28%; (HepG2, 10 µM) 31%; (HepG2, 20 µM) 65%. For the sequence “GCCAATGCCTAGGTCACAGT (sugars e5 d10 e5, PS)”, the target mRNA inhibition was 87% and 93% (HepG2, 2.5 µM); 84% and 90% (HepG2, 10 µM). As for “ATTGCCACTCCCATTCTTTG (sugars e2 d13 e5, PS)”, for the setting “HepG2, 0.12 µM”, the target mRNA inhibition stood at 53%. On to “GCACAGCGATGAGCCAGCAA (sugars e5 d10 e5, PS)”, for which the target mRNA inhibition was 50% and 45% and 69% (HepG2, 2.5 µM); 92% and 89% and 94% (HepG2, 10 µM).

As to “CTTGGGTGTGTTCCAGTCAA (sugars e5 d10 e5, PS)”, the target mRNA inhibition (HepG2, 0.12 µM) stood at 5%. As to “GTGTACTTTGAGCATCCCCA (sugars e5 d10 e5, PS)”, the target mRNA inhibition is 63% and 62% (HepG2, 2.5 µM); 88% and 87% (HepG2, 10 µM). As for “GCTAAGCTTATTAGGTGTCT (sugars e5 d10 e5, PS)”, the target mRNA inhibition is, setting by setting: (HepG2, 2.5 µM) 75% and 73%; (HepG2, 10 µM) 85% and 83%. Under “HepG2, 0.12 µM”, “GATTATTCTAAAACTCAAAT (sugars e5 d10 e5, PS)” gave a target mRNA inhibition of 0%. The same measure, in the same setting: then “TGGTCTTGTGCTTGTCGAAG (sugars e5 d10 e5, PS)”, with 41%; and “ACCAGCTGCAAGGATGACCT (sugars e5 d10 e5, PS)”, with 49%. As to “GGTTGTGTGTCTTCACCAGC (sugars e5 d10 e5, PS)”, the target mRNA inhibition reads like this: (HepG2, 0.12 µM) 64% and 70%; (HepG2, 2.5 µM) 0%. Regarding “TTCACCAGGGCCTCCATGTA (sugars e5 d10 e5, PS)”, the target mRNA inhibition (HepG2, 0.12 µM) is 20%. On to “AGGCCAAGGACAGAGGTTCA (sugars e5 d10 e5, PS)”, for which the target mRNA inhibition runs as follows: (HepG2, 2.5 µM) 60% and 51%; (HepG2, 10 µM) 81% and 87%.

Turning to “ACAGGAAGCCTGGTGACTGC (sugars e5 d10 e5, PS)”, where the note is “HepG2, 0.12 µM”, the target mRNA inhibition came out at 54%. On to “CTGTGAGGCCAAGGACAGAG (sugars e5 d10 e5, PS)”, for which the target mRNA inhibition runs as follows: (HepG2, 2.5 µM) 50%; (HepG2, 10 µM) 81%. Turning to “GGACCCCGGAGTAGGCGGCT (sugars e5 d10 e5, PS)”, the target mRNA inhibition reads like this: (HepG2, 2.5 µM) 30%; (HepG2, 10 µM) 82%. Take “GGCACCAGCCCCCAGGTGTC (sugars e5 d10 e5, PS)”: the target mRNA inhibition (HepG2, 0.12 µM) turned out to be 30%.

For the sequence “TATTCTAAAACTCAAATCCA (sugars e5 d10 e5, PS)”, the target mRNA inhibition (HepG2, 2.5 µM) was found to be 21% and the target mRNA inhibition (HepG2, 10 µM) amounted to 75%. “GATTTGTACTTGAATCCAGG (sugars e5 d10 e5, PS)” displayed a target mRNA inhibition (HepG2, 0.12 µM) of 34%. Same read-out and setting: then “CCATGTACATGGTGTGGTAC (sugars e5 d10 e5, PS)”, with 52%.

“TGGACAAGTCCTGCCCATCT (sugars e2 d13 e5, PS)”: the target mRNA inhibition (HepG2, 0.12 µM) was 51%. For “TGCTGAGCTCATGAGAAGCT (sugars e5 d10 e5, PS)”, the target mRNA inhibition by setting is: (HepG2, 2.5 µM) 75% and 57%; (HepG2, 10 µM) 92% and 83%. With “GTGCTCTGTGGGCTCCT (sugars e3 d10 e4, PS)”, the target mRNA inhibition was 55% and 70% (HepG2, 2.5 µM); 85% and 89% (HepG2, 10 µM). Sequence “ATGTATTTCTGGAACTTCTT (sugars e5 d10 e5, PS)” registered a target mRNA inhibition (HepG2, 0.12 µM) of 45%. For the sequence “AGGAAAACTTAGGCATGCTT (sugars e5 d10 e5, PS)”, the target mRNA inhibition is, setting by setting: (HepG2, 2.5 µM) 58%; (HepG2, 10 µM) 84%. For the sequence “CGCGCAGGACCCCGGAGTAG (sugars e2 d13 e5, PS)”, the target mRNA inhibition (HepG2, 0.12 µM) is 67%. On the same count and under the same terms, then “GAGTAGGCGGCTATGAGGGT (sugars e5 d10 e5, PS)”, with 11%. The sequence “TTGTACACTTCATTCTCTCC (sugars e5 d10 e5, PS)” came in with a target mRNA inhibition (HepG2, 2.5 µM) of 37% and a target mRNA inhibition (HepG2, 10 µM) of 84%. Turning to “TGGATACTCAGAAGAGCAGT (sugars e5 d10 e5, PS)”, under “HepG2, 0.12 µM”, the target mRNA inhibition was determined as 37%. Consider “GCCAAGGACAGAGGTTCAAC (sugars e5 d10 e5, PS)”, for which the target mRNA inhibition runs as follows: (HepG2, 2.5 µM) 61%; (HepG2, 10 µM) 90%. With “ACCCAGAGATGGTGATAAGG (sugars e5 d10 e5, PS)”, under “HepG2, 0.12 µM”, the target mRNA inhibition turned out to be 53%. On the same count and under the same terms, then “ACAGGGCAGATACCTCCAGA (sugars e5 d10 e5, PS)”, with 58%; and “TTTCGGACCCACTGTGACCT (sugars e3 d14 e3, PS)”, with 61%; and “AGTTTCGGACCCACTGTGAC (sugars e5 d10 e5, PS)”, with 63%. In the case of “CAGGTAGAGTTCTATTGCTT (sugars e5 d10 e5, PS)”, the target mRNA inhibition reads like this: (HepG2, 2.5 µM) 68% and 55%; (HepG2, 10 µM) 89% and 82%. Consider “CAGGTTCATCTGCCTTGACG (sugars e5 d10 e5, PS)”, for which the target mRNA inhibition (HepG2, 2.5 µM) came out at 69% and the target mRNA inhibition (HepG2, 10 µM) turned out to be 72%. For the sequence “CAGTGCTTTCTAAGTACCCT (sugars e5 d10 e5, PS)”, the target mRNA inhibition (HepG2, 2.5 µM) was 68% and 69%; the target mRNA inhibition (HepG2, 10 µM) is 91% and 86%. Turning to “CCACTGGAGCACTGAGATGA (sugars e3 d14 e3, PS)”, the target mRNA inhibition (HepG2, 0.12 µM) amounted to 62%. The sequence “CATACTGGCATCTGGCAGGG (sugars e5 d10 e5, PS)” gave a target mRNA inhibition (HepG2, 2.5 µM) of 65% and a target mRNA inhibition (HepG2, 10 µM) of 83%.

Take “GTAGGGCACCAGCCCCCAGG (sugars e5 d10 e5, PS)”: the target mRNA inhibition (HepG2, 0.12 µM) worked out at 23%. Turning to “GCCAGTTTCACAAAGCCCTT (sugars e5 d10 e5, PS)”, the target mRNA inhibition (HepG2, 0.12 µM) turned out to be 34%. Same read-out and setting: then “GTTTCGGACCCACTGTGACC (sugars e3 d14 e3, PS)”, with 71%; and “GAAGTCAGGCCAAGTGCCAA (sugars e5 d10 e5, PS)”, with 26%. Take “TCCTCTCCTGTTTGATGGGT (sugars e5 d10 e5, PS)”: the target mRNA inhibition (HepG2, 2.5 µM) was 83% and 90%; the target mRNA inhibition (HepG2, 10 µM) is 89% and 84%. In turn, “TCACTGATGACATATCCCCA (sugars e5 d10 e5, PS)” came in with a target mRNA inhibition (HepG2, 0.12 µM) of 52%. Turning to “CAGAATGAGACAGGCAGCCC (sugars e5 d10 e5, PS)”, the target mRNA inhibition was 37% (HepG2, 2.5 µM) and 82% (HepG2, 10 µM).

Turning to “CAAAAACATGACAGCCAGGG (sugars e5 d10 e5, PS)”, the target mRNA inhibition (HepG2, 2.5 µM) is 85% and 75%; the target mRNA inhibition (HepG2, 10 µM) was 96% and 90%. “CTTGTGCTTGTCGAAGAGCT (sugars e5 d10 e5, PS)”: the target mRNA inhibition reads like this: (HepG2, 2.5 µM) 33%; (HepG2, 10 µM) 66%. Where the note is “HepG2, 0.12 µM”, “AGGAAGGACAGGACCCACTG (sugars e5 d10 e5, PS)” had a target mRNA inhibition of 38%.

“TTCCCCAGAGCAGCTCTGAG (sugars e5 d10 e5, PS)”: for the setting “HepG2, 0.12 µM”, the target mRNA inhibition stood at 27%. The same measure, in the same setting: then “CCGGAGTAGGCGGCTATGAG (sugars e5 d10 e5, PS)”, with 37%. As for “TCAGGACCTCAGGGCTGGCC (sugars e5 d10 e5, PS)”, the target mRNA inhibition reads like this: (HepG2, 2.5 µM) 64%; (HepG2, 10 µM) 82%. For “GAATGGTGTGTTGGCTCCCT (sugars e5 d10 e5, PS)”, in that order: 54% and 75%. “CTTCTTCTGGACCCATCGGC (sugars e5 d10 e5, PS)”: the target mRNA inhibition (HepG2, 0.12 µM) is 27%. For the sequence “AATCTGTGTGACCTTGGGCA (sugars e5 d10 e5, PS)”, the target mRNA inhibition runs as follows: (HepG2, 2.5 µM) 87% and 82%; (HepG2, 10 µM) 84% and 93%. Turning to “AAATAACCCACAGACACCCA (sugars e5 d10 e5, PS)”, the target mRNA inhibition (HepG2, 0.12 µM) stood at 10%; the target mRNA inhibition (HepG2, 2.5 µM) is 52% and 50% and 46%; the target mRNA inhibition (HepG2, 10 µM) was 96% and 85%; the target mRNA inhibition (HepG2, 20 µM) is 97%.

With “GTCTCATTCATCTGGGCCCT (sugars e5 d10 e5, PS)”, the target mRNA inhibition by setting is: (HepG2, 2.5 µM) 69%; (HepG2, 10 µM) 86%. For “GCTTCCTCCCACTTCAGTTT (sugars e5 d10 e5, PS)”, in that order: 55% and 83%. Under “HepG2, 0.12 µM”, “AGGTTGTGTGTCTTCACCAG (sugars e3 d14 e3, PS)” registered a target mRNA inhibition of 61%. As for “TTCTTGCCAGGCATGGAGCT (sugars e5 d10 e5, PS)”, the target mRNA inhibition (HepG2, 0.12 µM) is 54%. On to “AGGACCCCGGAGTAGGCGGC (sugars e5 d10 e5, PS)”, for which the target mRNA inhibition by setting is: (HepG2, 0.12 µM) 52% and 76%; (HepG2, 2.5 µM) 60%; (HepG2, 10 µM) 92%. As for “CCTGGACAAGTCCTGCCCAT (sugars e2 d13 e5, PS)”, the target mRNA inhibition (HepG2, 0.12 µM) turned out to be 59%. Turning to “TCTCACATGCCTGAGGGCAG (sugars e5 d10 e5, PS)”, the target mRNA inhibition runs as follows: (HepG2, 2.5 µM) 70%; (HepG2, 10 µM) 82%. For “CTGTGCTCTGTGGGCTCCTC (sugars e5 d10 e5, PS)”, in that order: 57% and 89%.

“CCCAGTTTCGGACCCACTGT (sugars e3 d14 e3, PS)” displayed a target mRNA inhibition (HepG2, 0.12 µM) of 76%.

The record behind these values is the OligoGym collection.
